From patent publication EP0900210B1, “ANTIVIRALLY ACTIVE HETEROCYCLIC AZAHEXANE DERIVATIVES” (Novartis AG, priority 1996, dated 1997)

Target: T1, HIV-1-protease (Human immunodeficiency virus type 1 group M subtype B, UniProt P04585)
T1 construct: made in house
Assay: Inhibition of HIV-1-protease with icosapeptide substrate […] (HPLC)
Assay type: biochemical
Details: icosapeptide […] 122 µM, 20 mM MES pH 6.0, one hour at 37°C; read-out: IC50
Protocol: The inhibitory action of the compounds of formula I on the proteolytic activity of HIV-1-protease can be shown, for example, according to known procedures (see A. D. Richards et al., J. Biol. Chem. 265(14), 7733-7736 (1990)). In that method the inhibition of the action of HIV-1-protease (preparation: see S. Billich et al., J. Biol. Chem. 263(34), 17905-17908 (1990)) is measured in the presence of the icosapeptide […] (a synthetic substrate of HIV-1-protease, prepared by peptide synthesis in accordance with known procedures (see J. Schneider et al., Cell 54, 363-368 (1988)), which contains as substrate analogue one of the cleavage sites of the gag-precursor protein (natural substrate of HIV-1-protease). That substrate and its cleavage products are analysed by high performance liquid chromatography (HPLC).
The test compound is dissolved in dimethyl sulfoxide. The enzymatic test is carried out by adding suitable dilutions of the inhibitor in 20 mM β-morpholinoethanesulfonic acid (MES) buffer pH 6.0 to the test mixture. That mixture consists of the above-mentioned icosapeptide (122 µM) in 20 mM MES-buffer pH 6.0. 100 µl are used per test batch. The reaction is started by the addition of […] of HIV-1-protease solution and is stopped after one hour's incubation at 37°C by the addition of 10 µl of 0.3M HClO4. After centrifugation of the sample at 10 000 x g for 5 minutes, 20 µl of the resulting supernatant are applied to a 125 x 4.6 mm Nucleosil® C18-5m-HPLC column (reversed-phase material supplied by Macherey & Nagel, Düren, FRG, based on silica gel that has been charged with C18alkyl chains). The uncleaved icosapeptide and its cleavage products are eluted from the column by means of the following gradient: 100 % eluant 1 → 50 % eluant 1 + 50 % eluant 2 (eluant 1: 10 % acetonitrile, 90 % H2O, 0.1 % trifluoroacetic acid (TFA); eluant 2: 75 % acetonitrile, 25 % H2O, 0.08 % TFA) for 15 minutes, throughflow rate 1 ml/min. The quantification of the eluted peptide fragments is carried out by measuring the peak height of the cleavage product at 215 nm.
Using the test system described above with the icosapeptide […], the IC50 values given below are obtained for the following Examples: […]

SMILES	IC50 [µM]
CCOC(=O)N[C@H](C(=O)NN(Cc1ccc(-c2nccs2)cc1)C[C@H](O)[C@H](Cc1ccccc1)NC(=O)[C@@H](NC(=O)OC)C(C)C)C(C)C [Example 19, 1-[4-(Thiazol-2-yl)-phenyl]-4(S)-hydroxy-2-N-(N-ethoxycarbonyl-(L)-valyl)amino-5(S)-N-(N-methoxycarbonyl-(L)-valyl)amino-6-phenyl-2-azahexane]	0.022
COC(=O)N[C@H](C(=O)N[C@@H](Cc1ccccc1)[C@@H](O)CN(Cc1ccc(-c2nccs2)cc1)NC(=O)[C@@H](NC(=O)OC)C(C)C)C(C)C [Example 20, 1-[4-(Thiazol-2-yl)-phenyl]-4(S)-hydroxy-5(S)-2,5-bis[N-(N-methoxycarbonyl-(L)-valyl)amino]-6-phenyl-2-azahexane]	0.015
CC[C@H](C)[C@H](NC(=O)OC)C(=O)N[C@@H](Cc1ccccc1)[C@@H](O)CN(Cc1ccc(-c2nccs2)cc1)NC(=O)[C@@H](NC(=O)OC)C(C)(C)C [Example 21, 1-[4-(Thiazol-2-yl)-phenyl]-4(S)-hydroxy-2-N-(N-methoxycarbonyl-(L)-tert-leucyl)amino-5(S)-N-(N-methoxycarbonyl-(L)-iso-leucyl)amino-6-phenyl-2-azahexane]	0.043
CCOC(=O)N[C@H](C(=O)NN(Cc1ccc(-c2nccs2)cc1)C[C@H](O)[C@H](Cc1ccccc1)NC(=O)[C@@H](NC(=O)OC)[C@@H](C)CC)C(C)C [Example 22, 1-[4-(Thiazol-2-yl)-phenyl]-4(S)-hydroxy-2-N-(N-ethoxycarbonyl-(L)-valyl)amino-5(S)-N-(N-methoxycarbonyl-(L)-iso-leucyl)amino-6-phenyl-2-azahexane]	0.04
CC[C@H](C)[C@H](NC(=O)OC)C(=O)N[C@@H](Cc1ccccc1)[C@@H](O)CN(Cc1ccc(-c2nccs2)cc1)NC(=O)[C@@H](NC(=O)OC)C(C)C [Example 23, 1-[4-(Thiazol-2-yl)-phenyl]-4(S)-hydroxy-2-N-(N-methoxycarbonyl-(L)-valyl)amino-5(S)-N-(N-methoxycarbonyl-(L)-iso-leucyl)amino-6-phenyl-2-azahexane]	0.034
CC[C@H](C)[C@H](NC(=O)OC)C(=O)N[C@@H](Cc1ccccc1)[C@@H](O)CN(Cc1ccc(-c2nccs2)cc1)NC(=O)[C@H](CSC)NC(=O)OC [Example 24, 1-[4-(Thiazol-2-yl)-phenyl]-4(S)-hydroxy-2-N-(N-methoxycarbonyl-(L)-S-methylcysteinyl)amino-5(S)-N-(N-methoxycarbonyl-(L)-iso-leucyl)amino-6-phenyl-2-azahexane]	0.05
COC(=O)N[C@H](C(=O)N[C@@H](Cc1ccccc1)[C@@H](O)CN(Cc1ccc(-c2nnn(C(C)(C)c3ccccc3)n2)cc1)NC(=O)[C@@H](NC(=O)OC)C(C)(C)C)C(C)(C)C [Example 25, 1-{4-[2-(1-Methyl-1-phenyl-ethyl)-2H-tetrazol-5-yl]-phenyl}-4(S)-hydroxy-5(S)-2,5-bis[N-(N-methoxycarbonyl-(L)-tert-leucyl)amino]-6-phenyl-2-azahexane]	0.1
COC(=O)N[C@H](C(=O)N[C@@H](Cc1ccccc1)[C@@H](O)CN(Cc1ccc(-c2nnn[nH]2)cc1)NC(=O)[C@@H](NC(=O)OC)C(C)(C)C)C(C)(C)C [Example 26, 1-[4-(Tetrazol-5-yl)-phenyl]-4(S)-hydroxy-5(S)-2,5-bis[N-(N-methoxycarbonyl-(L)-tert-leucyl)amino]-6-phenyl-2-azahexane]	0.021
COC(=O)N[C@H](C(=O)N[C@@H](Cc1ccccc1)[C@@H](O)CN(Cc1ccc(-c2nnn(C)n2)cc1)NC(=O)[C@@H](NC(=O)OC)C(C)(C)C)C(C)(C)C [Example 27, 1-[4-(2-Methyl-2H-tetrazol-5-yl)-phenyl]-4(S)-hydroxy-5(S)-2,5-bis[N-(N-methoxycarbonyl-(L)-tert-leucyl)amino]-6-phenyl-2-azahexane]	0.027
CC[C@H](C)[C@H](NC(=O)OC)C(=O)NN(Cc1ccc(-c2nnn(C(C)(C)c3ccccc3)n2)cc1)C[C@H](O)[C@H](Cc1ccccc1)NC(=O)[C@@H](NC(=O)OC)C(C)(C)C [Example 28, 1-{4-[2-(1-Methyl-1-phenyl-ethyl)-2H-tetrazol-5-yl]-phenyl}-4(S)-hydroxy-2-N-(N-methoxycarbonyl-(L)-iso-leucyl)amino-5(S)-N-(N-methoxycarbonyl-(L)-tert-leucyl)amino-6-phenyl-2-azahexane]	0.083
CC[C@H](C)[C@H](NC(=O)OC)C(=O)NN(Cc1ccc(-c2nnn[nH]2)cc1)C[C@H](O)[C@H](Cc1ccccc1)NC(=O)[C@@H](NC(=O)OC)C(C)(C)C [Example 29, 1-[4-(Tetrazol-5-yl)-phenyl]-4(S)-hydroxy-2-N-(N-methoxycarbonyl-(L)-iso-leucyl)amino-5(S)-N-(N-methoxycarbonyl-(L)-tert-leucyl)amino-6-phenyl-2-azahexane]	0.014
CC[C@H](C)[C@H](NC(=O)OC)C(=O)NN(Cc1ccc(-c2nnn(C)n2)cc1)C[C@H](O)[C@H](Cc1ccccc1)NC(=O)[C@@H](NC(=O)OC)C(C)(C)C [Example 30, 1-[4-(2-Methyl-2H-tetrazol-5-yl)-phenyl]-4(S)-hydroxy-2-N-(N-methoxycarbonyl-(L)-iso-leucyl)amino-5(S)-N-(N-methoxycarbonyl-(L)-tert-leucyl)amino-6-phenyl-2-azahexane]	0.054
CC[C@H](C)[C@H](NC(=O)OC)C(=O)N[C@@H](Cc1ccccc1)[C@@H](O)CN(Cc1ccc(-c2nnn(C(C)(C)c3ccccc3)n2)cc1)NC(=O)[C@@H](NC(=O)OC)C(C)(C)C [Example 31, 1-{4-[2-(1-Methyl-1-phenyl-ethyl)-2H-tetrazol-5-yl]-phenyl}-4(S)-hydroxy-2-N-(N-methoxycarbonyl-(L)-tert-leucyl)amino-5(S)-N-(N-methoxycarbonyl-(L)-iso-leucyl)amino-6-phenyl-2-azahexane]	0.171
COC(=O)N[C@H](C(=O)N[C@@H](Cc1ccccc1)[C@@H](O)CN(Cc1ccc(-c2nnn(C(C)(C)C)n2)cc1)NC(=O)[C@@H](NC(=O)OC)C(C)(C)C)C(C)(C)C [Example 34, 1-[4-(2-tert-Butyl-2H-tetrazol-5-yl)-phenyl]-4(S)-hydroxy-5(S)-2,5-bis[N-(N-methoxycarbonyl-(L)-tert-leucyl)amino]-6-phenyl-2-azahexane]	0.072
COC(=O)N[C@H](C(=O)N[C@@H](Cc1ccccc1)[C@@H](O)CN(Cc1ccc(-c2nnn(C(C)(C)C)n2)cc1)NC(=O)[C@@H](NC(=O)OC)C(C)(C)C)C(C)C [Example 35, 1-[4-(2-tert-Butyl-2H-tetrazol-5-yl)-phenyl]-4(S)-hydroxy-2-N-(N-methoxycarbonyl-(L)-tert-leucyl)amino-5(S)-N-(N-methoxycarbonyl-(L)-valyl)amino-6-phenyl-2-azahexane]	0.058
COC(=O)N[C@H](C(=O)N[C@@H](Cc1ccccc1)[C@@H](O)CN(Cc1ccc(-c2ccccn2)cc1)NC(=O)[C@@H](NC(=O)OC)C(C)C)C(C)C [Example 37, 1-[4-(Pyridin-2-yl)-phenyl]-4(S)-hydroxy-5(S)-2,5-bis[N-(N-methoxycarbonyl-(L)-valyl)amino]-6-phenyl-2-azahexane]	0.029
CCOC(=O)N[C@H](C(=O)N[C@@H](Cc1ccccc1)[C@@H](O)CN(Cc1ccc(-c2ccccn2)cc1)NC(=O)[C@@H](NC(=O)OCC)C(C)C)C(C)C [Example 38, 1-[4-(Pyridin-2-yl)-phenyl]-4(S)-hydroxy-5(S)-2,5-bis[N-(N-ethoxycarbonyl-(L)-valyl)amino]-6-phenyl-2-azahexane]	0.085
COC(=O)N[C@H](C(=O)N[C@@H](Cc1ccccc1)[C@@H](O)CN(Cc1ccc(-c2cccnc2)cc1)NC(=O)[C@@H](NC(=O)OC)C(C)C)C(C)C [Example 39, 1-[4-(Pyridin-3-yl)-phenyl]-4(S)-hydroxy-5(S)-2,5-bis[N-(N-methoxycarbonyl-(L)-valyl)amino]-6-phenyl-2-azahexane]	0.012
COC(=O)N[C@H](C(=O)N[C@@H](Cc1ccccc1)[C@@H](O)CN(Cc1ccc(-c2cnccn2)cc1)NC(=O)[C@@H](NC(=O)OC)C(C)C)C(C)C [Example 40, 1-[4-(Pyrazin-2-yl)-phenyl]-4(S)-hydroxy-5(S)-2,5-bis[N-(N-methoxycarbonyl-(L)-valyl)amino]-6-phenyl-2-azahexane]	0.021
CC[C@H](C)[C@H](NC(=O)OC)C(=O)NN(Cc1ccc(-c2cnccn2)cc1)C[C@H](O)[C@H](Cc1ccccc1)NC(=O)[C@@H](NC(=O)OC)C(C)C [Example 41, 1-[4-(Pyrazin-2-yl)-phenyl]-4(S)-hydroxy-2-[N-(N-methoxycarbonyl-(L)-iso-leucyl)amino]-5(S)-[N-(N-methoxycarbonyl-(L)-valyl)amino]-6-phenyl-2-azahexane]	0.032
